Assay results published in US6667340B1, “Inhibitors of phosphatidyl myo-inositol cycle” (Arizona Board of Regents on behalf of the University of …, priority 1998, dated 2003).
Values joined by “and” are separate entries in the source; they are usually repeats but may differ in a detail not shown here. Equal entries are not always repeated. “Also recorded” adds a separate entry of the source. Where two headings read alike, the source gives them in different places. Each block holds one compound with its values, some of them ahead of it.

Legend:
HT-29 colon cancer cells [1] = experiment: HT-29 colony formation in soft agarose; assay type: cell-based, human; settings: for IC50: HT-29 colonies in soft agarose, 7 days exposure, mean of 3 determinations ± S.E.
bovine PI-PLC = experiment: In vitro inhibition of bovine PI-PLC; assay type: biochemical
[2] = biological target: T1, bovine brain p110/p85 PI-3-kinase (Bos taurus, UniProt P32871); experiment: In vitro inhibition of bovine brain p110/p85 PI-3-kinase; assay type: biochemical
T1 construct: from tissue; host or cells: bovine brain
T1 sequence (P32871 whole entry): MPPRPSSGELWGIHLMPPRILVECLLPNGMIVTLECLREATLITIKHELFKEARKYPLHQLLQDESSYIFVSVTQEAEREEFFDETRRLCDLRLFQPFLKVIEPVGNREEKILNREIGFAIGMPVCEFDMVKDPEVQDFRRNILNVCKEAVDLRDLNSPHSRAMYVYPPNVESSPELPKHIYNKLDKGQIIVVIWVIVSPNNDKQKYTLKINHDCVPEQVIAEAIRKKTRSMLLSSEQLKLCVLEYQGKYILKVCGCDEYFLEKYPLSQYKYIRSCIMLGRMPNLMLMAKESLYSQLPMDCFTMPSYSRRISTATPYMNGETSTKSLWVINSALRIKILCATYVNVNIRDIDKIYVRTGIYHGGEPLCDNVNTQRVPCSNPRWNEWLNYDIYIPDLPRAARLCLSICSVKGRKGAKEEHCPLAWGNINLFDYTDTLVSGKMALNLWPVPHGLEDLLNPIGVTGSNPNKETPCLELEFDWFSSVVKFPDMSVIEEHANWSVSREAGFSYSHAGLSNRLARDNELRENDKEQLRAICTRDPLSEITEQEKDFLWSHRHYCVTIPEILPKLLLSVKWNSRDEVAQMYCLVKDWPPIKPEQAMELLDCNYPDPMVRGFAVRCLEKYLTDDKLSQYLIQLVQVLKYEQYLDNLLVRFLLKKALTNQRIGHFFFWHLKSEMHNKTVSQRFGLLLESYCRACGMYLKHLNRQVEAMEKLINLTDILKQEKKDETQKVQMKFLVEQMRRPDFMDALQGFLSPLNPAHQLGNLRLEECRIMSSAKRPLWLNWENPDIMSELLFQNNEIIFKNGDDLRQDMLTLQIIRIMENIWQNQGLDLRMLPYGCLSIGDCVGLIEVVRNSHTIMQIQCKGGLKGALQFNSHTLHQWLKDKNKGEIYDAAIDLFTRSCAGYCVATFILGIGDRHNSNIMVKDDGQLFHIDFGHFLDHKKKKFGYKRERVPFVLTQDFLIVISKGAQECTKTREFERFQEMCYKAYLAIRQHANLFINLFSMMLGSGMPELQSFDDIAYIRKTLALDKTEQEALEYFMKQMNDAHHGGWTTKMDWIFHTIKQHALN
T1 sequence (P23727 whole entry partner): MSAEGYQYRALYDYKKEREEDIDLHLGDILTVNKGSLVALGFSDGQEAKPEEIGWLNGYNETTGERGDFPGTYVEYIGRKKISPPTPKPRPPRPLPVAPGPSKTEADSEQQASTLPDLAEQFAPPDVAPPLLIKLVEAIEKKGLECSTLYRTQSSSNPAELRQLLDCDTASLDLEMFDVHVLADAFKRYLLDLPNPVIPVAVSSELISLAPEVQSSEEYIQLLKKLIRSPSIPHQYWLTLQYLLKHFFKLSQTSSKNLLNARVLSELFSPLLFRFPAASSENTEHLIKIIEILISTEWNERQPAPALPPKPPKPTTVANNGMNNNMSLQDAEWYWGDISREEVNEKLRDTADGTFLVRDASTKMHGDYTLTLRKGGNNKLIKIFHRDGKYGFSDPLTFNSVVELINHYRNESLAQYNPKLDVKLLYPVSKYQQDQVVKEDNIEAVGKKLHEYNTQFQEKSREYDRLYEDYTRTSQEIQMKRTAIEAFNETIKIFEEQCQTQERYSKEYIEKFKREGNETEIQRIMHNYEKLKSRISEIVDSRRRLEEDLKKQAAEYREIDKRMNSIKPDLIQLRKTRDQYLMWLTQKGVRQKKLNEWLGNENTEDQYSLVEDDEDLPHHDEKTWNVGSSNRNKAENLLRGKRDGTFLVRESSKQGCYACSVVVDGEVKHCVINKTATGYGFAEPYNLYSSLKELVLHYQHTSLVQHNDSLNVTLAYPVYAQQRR
From the text: Schultz et al.; Anticancer Res., 15:1135-1140 (1995)).

HT-29 colon cancer cells [3] = settings: as reported earlier (J. Med. Chem. 1995; U.S. Pat. No. 5,227,508); read-out: IC50 for inhibition of colony formation by HT-29 human colon carcinoma cells; cited from earlier work
[4] = system: MCF-7 human breast cancer xenografts; experiment: in vivo; assay type: in vivo; settings: for T/C: p<0.05
From the text: (§1) Also, the relative ability of D-3-deoxy-PtdIns and OMDPI, when administered i.p. as a daily micellar suspension to inhibit the growth of MCF-7 human breast cancer xenografts in SCID mice, was further evaluated. […] […]. These were the maximum tolerated doses that could be given by these schedules. […].

[5] = Preliminary toxicology in BALB/C mice; assay type: in vivo, male BALB/C mice; settings: for Weight Change %: killed 24 hr after last dose
Description: In order to evaluate clinical safety, toxicity tests were conducted by administering DPI or OMDPI to groups of 4 male BALB/C mice daily by i.p. injection for 5 days at the maximum tolerated dose. […] Moreover, there was a 33% decrease in total white blood cell count. It should be noted, however, that this is not sufficient for a cytotoxic drug to be considered myelosuppresive.
As discussed, Table 4 contains the toxicity results obtained with groups of 4 male BALB/C mice, which were administered the compounds daily by i.p. injection for 5 days at the doses shown and killed 24 hr after the last dose. Values are mean±S.E. The p values are shown only where there was a significant difference to control.

human Akt = human Akt (Homo sapiens, UniProt P31749); experiment: Inhibition of PDGF-stimulated Akt activation in transfected NIH 3T3 cells; assay type: cell-based; settings: 6 hours exposure, listed as D-3-deoxy-PtdIns
Chain of human Akt (P31749 whole entry): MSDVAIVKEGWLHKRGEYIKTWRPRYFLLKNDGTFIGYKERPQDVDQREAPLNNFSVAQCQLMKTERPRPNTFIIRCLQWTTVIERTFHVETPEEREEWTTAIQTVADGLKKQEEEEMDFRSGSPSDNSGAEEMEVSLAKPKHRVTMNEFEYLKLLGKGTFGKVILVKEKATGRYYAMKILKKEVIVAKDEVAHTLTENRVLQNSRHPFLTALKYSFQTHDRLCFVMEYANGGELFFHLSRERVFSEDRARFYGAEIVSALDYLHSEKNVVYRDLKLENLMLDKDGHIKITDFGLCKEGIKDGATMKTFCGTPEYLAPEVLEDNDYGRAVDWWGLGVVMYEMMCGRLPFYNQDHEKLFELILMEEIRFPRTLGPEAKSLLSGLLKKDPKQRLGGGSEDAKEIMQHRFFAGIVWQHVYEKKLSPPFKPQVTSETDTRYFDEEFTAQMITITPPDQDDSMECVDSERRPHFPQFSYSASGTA

HT-29 human colon cancer = experiment: Anti-tumor activity against established HT-29 human colon cancer in SCID mice; settings: for T/C % / Tumor volume on day 10: qd 4-7; for Tumor volume on day 10: mean of 8 mice with S.E.
[6] = administered orally as well as parenterally; cited from earlier work
Aqueous solubility = assay type: physicochemical; settings: aqueous with cosolvent or surfactant or cyclodextrin; in 0.1% Tween 20, opalescent solution
From the text: Therefore, OMDPI should be readily formulated for intravenous use, should this be determined to be the optimal route for clinical administration.

in vivo = assay type: in vivo; settings: SCID, mouse, in vivo, ip, read-out: maximum tolerated dose
From the text: as §1

PI-3kinase = settings: previously found; cited from earlier work
[7] = 300 mg/kg i.p. daily for 5 days
[8] = 100 mg/kg i.p. daily for 5 days
[9] = 100 mg/kg i.p. daily for 5 days, listed as OMDPI
[10] = 100 mg/kg i.p. daily for 5 days, listed as deoxy-PtdIns Ether Lipid
[11] = maximum tolerated dose i.p. daily for 5 days

IC50 (HT-29 colon cancer cells [1]; Homo sapiens, 168 h): 10 µM
Compound: CCCCCCCCCCCCCCCC(=O)OCC(CCP(=O)(O)OC1C(O)CC(O)C(O)C1O)OC(=O)CCCCCCCCCCCCCCC [(50), 1-O-[(3S)-3,4-bis(palmitoyloxy)butylphosphonyl]-1D-3-deoxy-myo-inositol]
fold increase in growth inhibitory activity compared to DPI (HT-29 colon cancer cells [1]; HT-29 colony formation, versus (30)): > 3 fold and ~3 fold
PtdIns-PLC IC50 (bovine PI-PLC): N/A (N/A = not active, with <20% inhibition at 100 gM.)
PI-3-K IC50 [2]: N/A (N/A = not active, with <20% inhibition at 100 gM.)

IC50 (HT-29 colon cancer cells [1]; Homo sapiens, 168 h): 45 µM
Compound: CCCCCCCCCCCCCCCCCCOCC(CCP(=O)(O)OC1C(O)CC(O)C(O)C1O)OC [(90), 1-O-[(3S)-methoxy-4-(octadecyloxy)butylphosphonyl]-1D-3-deoxy-myo-inositol]

Compound: CCCCCCCCCCCCCCCC(=O)OCC(COP(=O)(O)OC1C(O)CC(O)C(O)C1O)OC(=O)CCCCCCCCCCCCCCC (centres unmarked) [(30), 3-deoxy-phosphatidyl-myo-inositol, reference compound]
IC50 (HT-29 colon cancer cells [1]): 35 µM
IC50 (HT-29 colon cancer cells [3]): 35 µM
T/C ([4]; i.p. daily micellar suspension, dose not given): 62%
ALT [5, 7]: 30.5
BUN [5, 7]: 15.7
Platelets × 10^6 [5, 7]: 0.9 × 10^6
Total Protein [5, 7]: 4.6
White blood cells [5, 7]: 7.9
Weight Change % [5, 7]: −4.3 ± 1.9%
Akt activation (human Akt): blocks the activation of Akt; also recorded: blocked Akt activation
PtdIns-PLC IC50 (bovine PI-PLC): N/A (N/A = not active, with <20% inhibition at 100 gM.)
T/C % (HT-29 human colon cancer; 250 mg/kg i.p.): 111.1%
Tumor volume on day 10 (HT-29 human colon cancer; 250 mg/kg i.p.): 0.30 ± 0.06 cm^3
lethality (HT-29 human colon cancer; 500 mg/kg i.p., qd 4-5): lethal
anti-tumor activity (HT-29 human colon cancer; half of 500 mg/kg daily i.p.): no anti-tumor activity

Compound: CCCCCCCCCCCCCCCCOP(=O)([O-])OCC[N+](C)(C)C [mitelfosine, hexadecylphosphocholine]
clinical anti-tumor activity [6]: have shown clinical anti-tumor activity

Compound: 3-chloro-3-deoxy-PtdIns [reference compound]
growth inhibition at maximum tested concentration (HT-29 colon cancer cells [1]; HT-29 colony formation): < 20%

Compound: CCCCCCCCCCCCCCCCCCOCC(COP(=O)(O)OC1C(O)CC(O)C(O)C1O)OC (centres unmarked) [(60), 1-O-(2-O-methyl-1-O-octadecyl-sn-glycero-3-phospho)-1D-3-deoxy-myo-inositol]
solubility (Aqueous solubility): ≥ 10000 µg/mL
IC50 (HT-29 colon cancer cells [1]; listed as OMDPI (60)): 2.1 ± 0.1 µM
IC50 (HT-29 colon cancer cells [1]; Homo sapiens, HT-29, 168 h): 2 µM
MTD at 5 days (in vivo; daily i.p. for 5 days): 100 mg/kg
MTD at 10 days (in vivo; daily i.p. for 10 days): 75 mg/kg
T/C ([4]; 75 mg/kg i.p. for 10 days): 20%
T/C ([4]; 100 mg/kg i.p. for 5 days): 39%
inhibition of the growth of MCF-7 breast cancer ([4]; 4 or 5 day daily i.p. schedule): 60%
inhibition of the growth of MCF-7 breast cancer xenografts ([4]; 10 day schedule): 80%
ALT [5, 8]: 32.7
BUN [5, 8]: 18.7
Total Protein [5, 8]: 4.9
White blood cells [5, 8]: 5.8
Weight Change % [5, 9]: no effect
Weight Change % [5, 10]: +2.3 ± 1.5%
Platelets × 10^6 [5, 9]: no effect
Platelets × 10^6 [5, 10]: 0.9 × 10^6
liver, renal toxicity ([5]; in words): not liver or renal toxic
myelosuppression ([5]; in words): only weakly myelosuppresive
decrease in total white blood cell count [5, 11]: 33%
serum liver or kidney enzymes [5, 11]: did not result in elevation
T/C % (HT-29 human colon cancer; 50 mg/kg i.p.): 103.7%
Tumor volume on day 10 (HT-29 human colon cancer; 50 mg/kg i.p.): 0.258 ± 0.05 cm^3
T/C % (HT-29 human colon cancer; 100 mg/kg i.p.): 118.0%
Tumor volume on day 10 (HT-29 human colon cancer; 100 mg/kg i.p.): 0.32 ± 0.09 cm^3
T/C % (HT-29 human colon cancer; 150 mg/kg i.p.): 33.3%
Tumor volume on day 10 (HT-29 human colon cancer; 150 mg/kg i.p.): 0.09 ± 0.07 cm^3
toxicity at the highest dose tested (HT-29 human colon cancer; 150 mg/kg per day i.p.): not toxic
inhibition of tumor growth (HT-29 human colon cancer; 150 mg/kg per day, 4 daily i.p. injections): 67%
anti-tumor activity (HT-29 human colon cancer; 100 and 50 mg/kg per day i.p.): did not elicit anti-tumor activity

IC50 (HT-29 colon cancer cells [1]): 37 µM
Compound: CCCCCCCCCCCCCCCC(=O)OCC(COP(=O)(O)OC1C(O)C(O)C(O)C(F)C1O)OC(=O)CCCCCCCCCCCCCCC (centres unmarked) [(35), 3-Fluoro-3-deoxy-PtdIns, reference compound]
IC50 (HT-29 colon cancer cells [3]): 37 µM

Compound: 2,3-dideoxy-PtdIns
IC50 (HT-29 colon cancer cells [1]): 50 ± 7 µM

Compound: O=P1(N(CCCl)CCCl)NCCCO1 (centres unmarked) [cyclophosphamide, reference compound]
inhibition of the growth of MCF-7 xenografts ([4]; 265 mg/kg on day 5, positive control): 43%

PI-PLC IC50 (bovine PI-PLC; same assay conditions as Table 2): poor inhibitor
Compound: CCCCCCCCCCCCCCCCCCOC[C@H](COP(=O)(O)OC1C(O)C(O)C(O)C(O)C1O)OC (some centres unmarked) [1-O-octadecyl-2-O-methyl-sn-glycero-3-phospho-myo-inositol]
inhibition of cancer cell growth (HT-29 colon cancer cells [1]; in words): only a weak inhibitor
IC50 (PI-3kinase): 90 µM
